Measurements reported in patent US20120196918A1, “PREVENTING ISLET INFLAMMATION AND DYSFUNCTION AND MAINTAINING PROPER GLUCOSE LEVELS BY CONTROLLING eIF5A AND ITS HYPUSINATION” (priority 2009, published 2012).

Experiments:
[1] = test system: STZ-treated C57BL/6J mice; test: Multiple low-dose streptozotocin (STZ) diabetes model in C57BL/6J mice; format: in vivo, mouse
Method: To test the role of eIF5A in cytokine-mediated islet dysfunction, efforts were made to identify a mouse model of islet inflammation. The multiple low dose streptozotocin (STZ) model, in which mice are subjected to five daily intraperitoneal doses (at 55 mg/kg body weight) of STZ, is considered to provoke local islet inflammation and cytokine release, in part through the recruitment of CD11c+ dendritic cells that release pro-inflammatory cytokines in the area of STZ-induced cellular destruction (27 and 28).
C57BL/6J mice were injected intraperitoneally with either stabilized siRNA against eIF5A (si-eIF5A) or control siRNA (si-Control) daily for three days, then subjected to the multiple low-dose STZ protocol (see schematic in FIG. 1a). […] The effect of administering si-eIF5A on islet viability following STZ treatment was determined by performing immunohistochemical analysis of the pancreata of mice. […] To quantify the differences in islet mass between STZ-treated and untreated animals, morphometry of insulin-stained pancreatic sections was performed.
Based on the observed data, if hypusination of eIF5A by DHS is required for cytokine responsiveness in islets, then inhibition of DHS in vivo should protect against low dose STZ diabetes. To test this, C57BL/6J mice were treated with GC7 or vehicle and then subjected to low dose STZ injections. GC7 was delivered in one of two different ways: either by daily bolus intraperitoneal injections (4 mg/kg/day) or by continuous subcutaneous delivery (40 μg/kg/h) using implanted osmotic pumps. A protocol similar to that shown in FIG. 1A was employed in these studies, with GC7 injections or pump implants starting 3 days prior to STZ injections.
Small interfering RNA (siRNA) studies: Stabilized siRNAs for intraperitoneal injections were custom synthesized by Dharmacon using the siSTABLE® modification. Groups of 10 week-old C57BL/6J male mice (from Jackson Labs) received daily intraperitoneal injections of 1.6 mg/kg siRNA prepared in 0.9% saline or vehicle alone (0.9% saline) for 3 days. For in vitro studies, islets from each group of injected mice were harvested on the fourth day and pooled prior to analysis. Injections with each siRNA were performed on at least 3 different occasions. siRNA sequences were as follows: siControl, 5′-[…]-3′; si-eIF5A, 5′-[…]-3′. For siRNA studies in the rat β cell-derived line INS-1 (832/13), cells were transfected with a SMART Pool® siRNA against rat eIF5A1 (Dharmacon, #L-083855-01) or non-targeting control siRNA #1 (Dharmacon) using DharmaFECT® transfection reagent (Dharmacon).
Immunostaining and morphometric assessment of β cell mass: Immunostaining of pancreatic sections proceeded as described previously (72). For assessment of islet cell death in pancreatic sections, the technique of terminal deoxynucleotidyl transferase dUTP nick end labeling (TUNEL) was performed using biotinylated 16-dUTP (Roche) and Texas Red Neutravidin (Invitrogen). Digital images of each islet at 40× magnification were acquired using an Axio-Observer D1 microscope (Zeiss) inverted fluorescent microscope equipped with a high-resolution color camera. TUNEL-positive/insulin-positive nuclei were counted manually by an observer blinded to sample identity, and data were re-coded as the average number of TUNEL-positive nuclei per islet. β cell mass was calculated as described previously (73), but with some modifications. Briefly, pancreata from 3 mice per treatment group were rapidly dissected and weighed, fixed in 4% paraformaldehyde, paraffin-embedded, and longitudinally sectioned. Three sections/pancreas (approx. 75 μm apart) were subsequently immunostained for insulin and counterstained with hematoxylin as described (74), and digital images of each section at 10× magnification were acquired on an Axio-Observer Z1 microscope (Zeiss) fitted with an AxioCam high resolution color camera. […]

iNOS = test: Nitrite release into INS-1 cell medium (Griess reagent); format: cell-based, rat; conditions: increasing GC7 concentrations, cytokines 4 h; greatest inhibition at 125 μM
Text: eIF5A1 and eIF5A2 are the only proteins known to contain the unique amino acid hypusine at position 50. Hypusine is formed as a posttranslational modification of residue Lys50 in a reaction requiring spermidine and catalyzed by the sequential actions of the enzymes deoxyhypusine synthase (DHS) and deoxyhypusine hydroxylase (DOHH) (Chen, K Y, and Liu, A Y. Biochemistry and function of hypusine formation on eukaryotic initiation factor 5A. Biol Signals. 1997; 6(3):105-109). […] To further investigate the mechanism of eIF5A-regulated translation of Nos2, studies were performed following overnight incubation of cells with mimosine (an inhibitor of DOHH) and GC7 (an inhibitor of DHS). […]
Immunoblot and nitrite and iNOS assays: Whole cell extracts were resolved by electrophoresis on a 4-20% SDS-polyacrylamide gel, followed by immunoblot using anti-eIF5A1, anti-eIF5A2, anti-iNOS, anti-GFP, or anti-actin primary antibodies and fluorophore-labeled secondary antibodies. Immunoblots were visualized using the Li-Cor® Odyssey® system (Li-Cor Biosciences) and quantitated by scanning fluorometry using Odyssey Imaging v. […] Nitrite was quantitated by measuring nitric oxide-derived nitrite from INS-1 cell culture medium using the Griess reagent (Promega) according to the manufacturer's recommendations. iNOS activity was measured using a commercially available kit (Cayman).

Molecule | average fasting blood glucose ([1]; siRNA 1.6 mg/kg i.p. daily for 3 days, then multiple low-dose STZ, day 7) | immunohistochemical staining for iNOS in islets ([1]; siRNA i.p., STZ, end of the study) | islet number and insulin staining of pancreata (immunohistochemistry) ([1]; siRNA i.p., multiple low-dose STZ) | glucose tolerance in IPGTT ([1]; siRNA i.p., multiple low-dose STZ, compared to si-Control-injected mice) | reduction of β cell mass compared to non-STZ-treated controls ([1]; siRNA i.p., multiple low-dose STZ, morphometry of insulin-stained sections) | iNOS induction in islets by immunoblot ([1]; siRNA i.p., 24 h after the first STZ treatment) | STZ-induced glucose intolerance (GTT), osmotic pump GC7 ([1]; GC7 40 μg/kg/h continuous s.c. osmotic pump, started 3 days before STZ) | STZ-induced glucose intolerance (GTT), intraperitoneal GC7 ([1]; GC7 4 mg/kg/day i.p. bolus, started 3 days before STZ) | β cell mass (histomorphometry) ([1]; GC7-injected animals, STZ) | iNOS production in islets ([1]; GC7-treated pump animals, STZ) | TUNEL+ cells per islet ([1]; GC7 plus STZ, STZ alone 0.78) | serum IL-6 levels ([1]; concurrent treatment with STZ) | insulin secretion at 0 and 30 min during glucose challenge ([1]; pump-implanted animals, STZ) | nitrite release into the medium (iNOS)
5′-AACGGAAUGACUUCCAGCUGA-3′ (siSTABLE modification, further chemistry not given here) [si-eIF5A] | 101 mg/dL | undetectable | relatively preserved islet number and insulin granularity | improved glucose tolerance | 1.4 fold | attenuated | – | – | – | – | – | – | – | –
NCCCCCCCN=C(N)N [GC7] | – | – | – | – | – | – | near-complete protection | near-complete protection | full preservation of mass | suppression of iNOS production | 0.42 | did not affect IL-6 levels | normal insulin secretory response | dose-dependent attenuation
